Literature values as cited in paper PMC9915632 (International Journal of Molecular Sciences, 2023).
Non-standard residues stand in square brackets, D forms with d. Orn = NCCC[C@H](N)C(=O)O

Columns and labels:
[1] = ref [22], cited from earlier work
SARS-CoV-2 = details: in vitro; ref [16]; cited from earlier work
[2] = ref [15]; cited from earlier work

Question: Which hemolysis ([1]; limits use to topical application) does the source give for “For-Val-Gly-D-Leu-Ala-D-Val-Val-D-Val-Trp-D-Leu-Trp-D-Leu-Trp-D-Leu-Trp-Gly-ol [Gramicidin D, FDA-approved antimicrobial peptide drug, PubChem CID 45267103]” here?
Answer: The hemolysis was “hemolytic side effect”.

Question: And the tolerability ([1]; topical antibiotic)?
Answer: The tolerability was “well-tolerated antibiotic”.

Question: With “cyclo(L[dF]PV[Orn]L[dF]PV[Orn]) [Gramicidin S]” as the substance, how does the anti-SARS-CoV-2 activity (SARS-CoV-2) read?
Answer: The anti-SARS-CoV-2 activity was “anti-SARS-CoV-2 activity in vitro”.

Question: And the “antibacterial and fungicidal activity” value [2]?
Answer: Its value is “potent antibacterial and fungicidal activity”.
